Data taken from patent publication EP4178959B1, “NITROGEN HETEROCYCLIC CYTOKININ DERIVATIVES, COMPOSITIONS CONTAINING THESE DERIVATIVES AND USE THEREOF” (Univerzita Palackého v Olomouci, priority 2020, dated 2022).

Tests used:
excised wheat leaf tips = assay: Senescence inhibition on winter wheat leaf segments (chlorophyll retention); design: species or system Triticum aestivum cv. Hereward; settings: for Concentration with highest activity: retention of chlorophyll; for Activity (%) [10^-4mol.l^-1 KTHP = 100%] / Emax: retention of chlorophyll in excised wheat leaf tips, 96 h in the dark, at concentration with highest activity; for Emax: Triticum aestivum, foliar, read-out: Activity (%) [10^-4mol.l^-1 KTHP = 100%]
Procedure: Seeds of winter wheat, Triticum aestivum cv. Hereward, were washed under running water for 24 hours and then sown on vermiculite soaked with the Knop's solution. They were placed in the grow chamber at 25 °C with a 16/8 h light period at 50 μmol.m^-2.s^-1. After 7 days, the first leaf was fully developed and the second leaf had started to grow. A tip section of the first leaf, approximately 35 mm long, was removed from 5 seedlings and trimmed slightly to a combined weight of 100 mg. The basal ends of the five leaf tips were placed in the wells of a microtiter polystyrene plate containing 150 μl of the solution of the tested compound each. The entire plate was inserted into a plastic box lined with paper tissues soaked with distilled water to prevent leaf sections from drying out. […] The absorbance of the extract was recorded at 665 nm. In addition, chlorophyll extracts from fresh leaves and leaf tips incubated in deionised water were measured. From the obtained data, the concetration with the highest activity was selected for each compound tested. Relative activity of the compound at this concentration was calculated (Table 7). […] The values shown are means of five replicates and the whole experiment was repeated twice. The compounds to be tested were dissolved in dimethylsulfoxide (DMSO) and the solution brought up to 10^-3 M with distilled water. […] The compounds listed in Table 7 can be divided into 2 groups. The first group contains "classical 6,9-disubstituted purines (KTHP as a control)" known in prior art. […] Table 9: […]

[1] = Calcein AM cytotoxicity assay, BJ cells; settings: human; for CC50 at 72 h: bj fibroblasts
Procedure: (§1) All compound concentrations were examined in duplicates. […] Zero cytotoxicity is a basic prerequisite for the use of these substances in cosmetical applications. To assess the antitumor activity, the toxicity of new derivatives on panels containing cell lines of different histogenic and species origin was tested (Table 5). […] The compounds listed in Table 5 can be divided into 2 groups.
(§2) The first group contains "classical cytokinins" represented by 6-substituted purines (their effects are already known). The second group includes novel 2-fluoro-N6-substituted-9-(2-oxacycloalkyl)-9H-purine-6-amine derivatives. […] Low cytotoxicity (high IC50 value) of the compounds is the basic prerequisite for cosmetic and medical applications. […] Table 5: Cytotoxicity of novel compounds for different normal cell lines tested / IC50 (µmol/L)

[2] = Calcein AM cytotoxicity assay, B10A.4 cells; settings: mouse; for CC50 at 72 h: b10a.4 macrophages
Procedure: as §1, §2

[3] = Calcein AM cytotoxicity assay, NIH3T3 cells; settings: mouse; for CC50 at 72 h: nih3t3 cells
Procedure: as §1, §2

[4] = Cytotoxicity IC50, B10A.4, first column headed B10A.4
[5] = Cytotoxicity IC50, B10A.4, second column headed B10A.4

Compound | Concentration with highest activity (excised wheat leaf tips) | Activity (%) [10^-4mol.l^-1 KTHP = 100%] (excised wheat leaf tips) | CC50 at 72 h [1] [µM] | CC50 at 72 h [2, 4] [µM] | CC50 at 72 h [3] [µM] | CC50 at 72 h [2, 5] [µM] | Emax (excised wheat leaf tips) [%] | IC50 at 72 h [1] [µM] | IC50 at 72 h [2, 4] [µM] | IC50 at 72 h [3] [µM] | IC50 at 72 h [2, 5] [µM]
COc1ccc(CNc2nc(F)nc3c2ncn3C2CCCO2)cc1OC (stereo not shown) [Compound 39] | 10^-4 mol.l^-1 | 126 (± 21) % | > 167 | > 167 | > 167 | – | – | – | – | – | –
CC(CO)CCNc1nc(F)nc2c1ncn2C1CCCO1 (stereo not shown) [Compound 11] | 10^-4 mol.l^-1 | 125 (± 12) % | > 167 | 146 | 139 | – | – | – | – | – | –
COc1cc(CNc2nc(F)nc3c2ncn3C2CCCO2)cc(OC)c1O (stereo not shown) [Compound 41] | 10^-4 mol.l^-1 | 42 (± 13) % | > 167 | > 167 | > 167 | – | – | – | – | – | –
Oc1ccccc1CNc1nc(F)nc2c1ncn2C1CCCO1 (stereo not shown) [Compound 14] | 10^-4 mol.l^-1 | 53.6 (± 7) % | > 167 | > 167 | > 167 | > 167 | – | – | – | – | –
Oc1ccc(CNc2nc(F)nc3c2ncn3C2CCCCO2)cc1 (stereo not shown) [Compound 66, 2-Fluoro-6-[(4-hydroxybenzyl)amino]-9-(tetrahydro-2H-pyran-2-yl)-9H-purine] | – | – | – | – | – | – | 74 | > 167 | > 167 | > 167 | –
Oc1cc(O)cc(CNc2nc(F)nc3c2ncn3C2CCCO2)c1 (stereo not shown) [Compound 34] | 10^-4 mol.l^-1 | 145 (± 12) % | > 167 | > 167 | > 167 | – | – | – | – | – | –
Cc1cc(O)cc(CNc2nc(F)nc3c2ncn3C2CCCO2)c1 (stereo not shown) [Compound 52] | 10^-4 mol.l^-1 | 23 (± 1) % | > 167 | > 167 | > 167 | – | – | – | – | – | –
CC(C)=CCNc1ncnc2nc[nH]c12 [isopentenyladenine, reference compound] | – | – | 134 | > 167 | 124 | 147 | – | – | – | – | –
Cc1cccc(CNc2nc(F)nc3c2ncn3C2CCCO2)c1O (stereo not shown) [Compound 49] | 10^-4 mol.l^-1 | 16.4 (± 3) % | 161 | 156 | > 167 | – | – | – | – | – | –
Oc1ccoc1CNc1nc(F)nc2c1ncn2C1CCCO1 (stereo not shown) [Compound 53] | 10^-4 mol.l^-1 | 45 (± 13) % | > 167 | > 167 | > 167 | – | – | – | – | – | –
Nc1ncnc2nc[nH]c12 [Adenine, reference compound] | – | – | – | – | – | – | – | > 167 | > 167 | > 167 | > 167
C/C(=C\CNc1nc(F)nc2c1ncn2C1CCCCO1)CO (stereo not shown) [Compound 70] | 10^-4 mol.l^-1 | 126 (± 12) % | > 167 | > 167 | > 167 | – | – | – | – | – | –
Cc1cc(CNc2nc(F)nc3c2ncn3C2CCCO2)ccc1O (stereo not shown) [Compound 51] | 10^-4 mol.l^-1 | 19 (± 2) % | > 167 | > 167 | > 167 | – | – | – | – | – | –
CC(C)=CCNc1nc(F)nc2c1ncn2C1CCCCO1 (stereo not shown) [Compound 69] | 10^-4 mol.l^-1 | 108 (± 13) % | 153 | 146 | 142 | – | – | – | – | – | –
COc1cccc(CNc2nc(F)nc3c2ncn3C2CCCO2)c1O (stereo not shown) [Compound 20] | 10^-4 mol.l^-1 | 50 (± 5) % | 137 | 124 | > 141 | 126 | – | – | – | – | –
Oc1ccccc1CNc1ncnc2nc[nH]c12 [ortho-topolin, reference compound] | – | – | 108 | 87.5 | 94.1 | 94.3 | – | – | – | – | –

Compound | Concentration with highest activity (excised wheat leaf tips) | Activity (%) [10^-4mol.l^-1 KTHP = 100%] (excised wheat leaf tips) | CC50 at 72 h [1] [µM] | CC50 at 72 h [2, 4] [µM] | CC50 at 72 h [3] [µM] | CC50 at 72 h [2, 5] [µM] | Emax (excised wheat leaf tips) [%] | IC50 at 72 h [1] [µM] | IC50 at 72 h [2, 4] [µM] | IC50 at 72 h [3] [µM] | IC50 at 72 h [2, 5] [µM]
COc1cc(O)cc(CNc2nc(F)nc3c2ncn3C2CCCO2)c1 (stereo not shown) [Compound 44] | 10^-4 mol.l^-1 | 47 (± 11) % | > 167 | > 167 | > 167 | – | – | – | – | – | –
COc1cc(CNc2nc(F)nc3c2ncn3C2CCCO2)cc(OC)c1 (stereo not shown) [Compound 40] | 10^-4 mol.l^-1 | 163 (± 8) % | > 167 | > 167 | > 167 | – | – | – | – | – | –
COc1ccc(OC)c(CNc2nc(F)nc3c2ncn3C2CCCO2)c1 (stereo not shown) [Compound 37] | 10^-4 mol.l^-1 | 121.8 (± 17) % | > 167 | > 167 | > 167 | – | – | – | – | – | –
Cc1ccc(O)c(CNc2nc(F)nc3c2ncn3C2CCCO2)c1 (stereo not shown) [Compound 50] | 10^-4 mol.l^-1 | 82 (± 12) % | > 167 | > 167 | > 167 | – | – | – | – | – | –
Cc1ccc(CNc2nc(F)nc3c2ncn3C2CCCCO2)o1 (stereo not shown) [Compound 60, 2-Fluoro-6-[(5-methylfurfuryl)amino]-9-(tetrahydro-2H-pyran-2-yl)-9H-purine] | – | – | – | – | – | – | 123 | > 167 | > 167 | > 167 | –
COc1ccc(CNc2nc(F)nc3c2ncn3C2CCCO2)c(O)c1 (stereo not shown) [Compound 21] | 10^-4 mol.l^-1 | 35 (± 9.5) % | 132 | 147 | 158 | – | – | – | – | – | –
COc1cccc(OC)c1CNc1nc(F)nc2c1ncn2C1CCCO1 (stereo not shown) [Compound 38] | 10^-4 mol.l^-1 | 128 (± 16) % | > 167 | > 167 | > 167 | – | – | – | – | – | –
Oc1ccc(CNc2nc(F)nc3c2ncn3C2CCCO2)cc1 (stereo not shown) [Compound 16, 2-Fluoro-6-[(4-hydroxybenzyl)amino]-9-(tetrahydrofuran-2-yl)-9H-purine] | – | – | – | – | – | – | 110 | > 167 | > 167 | > 167 | –
Oc1ccc(CNc2nc(F)nc3c2ncn3C2CCCO2)o1 (stereo not shown) [Compound 55] | 10^-4 mol.l^-1 | 101 (± 17) % | > 167 | > 167 | > 167 | – | – | – | – | – | –
COc1cc(CNc2nc(F)nc3c2ncn3C2CCCO2)ccc1O (stereo not shown) [Compound 43, 2-Fluoro-6-[(4-hydroxy-3-methoxybenzyl)amino]-9-(tetrahydrofuran-2-yl)-9H-purine] | – | – | – | – | – | – | 55 | > 167 | > 167 | > 167 | –
COc1cc(O)cc(OC)c1CNc1nc(F)nc2c1ncn2C1CCCO1 (stereo not shown) [Compound 42] | 10^-4 mol.l^-1 | 22 (± 4) % | > 167 | > 167 | > 167 | – | – | – | – | – | –
COc1ccc(CNc2nc(F)nc3c2ncn3C2CCCCO2)o1 (stereo not shown) [Compound 63] | 10^-4 mol.l^-1 | 97 (± 5) % | > 167 | > 167 | > 167 | – | – | – | – | – | –
COc1ccc(CNc2nc(F)nc3c2ncn3C2CCCO2)c(OC)c1 (stereo not shown) [Compound 36] | 10^-4 mol.l^-1 | 125.6 (± 15) % | > 167 | > 167 | > 167 | – | – | – | – | – | –
Oc1ccc(CNc2nc(F)nc3c2ncn3C2CCCO2)cc1O (stereo not shown) [Compound 33] | 10^-4 mol.l^-1 | 71.3 (± 17) % | > 167 | > 167 | > 167 | – | – | – | – | – | –
c1coc(CNc2ncnc3c2ncn3C2CCCCO2)c1 (stereo not shown) [KTHP, 6-furfurylamino-9-tetrahydropyranylpurine, reference compound] | 10^-4 mol.l^-1 | 100 (± 8.6) % | – | – | – | – | – | – | – | – | –
c1coc(CNc2ncnc3[nH]cnc23)c1 [Kinetin, reference compound] | – | – | – | – | – | – | – | 148 | > 167 | 133 | 164
